Test results published in PMC7731220, “Pharmacophore Modeling and 3D-QSAR Study of Indole and Isatin Derivatives as Antiamyloidogenic Agents Targeting Alzheimer’s Disease” (Molecules, 2020).
Where two headings read alike, the source gives them in different places.

Experiments:
Aβ40 [1] = biological target: T1, Aβ40 (Homo sapiens, UniProt P05067); test: Inhibition of Aβ40 self-aggregation (thioflavin T fluorescence, 2% HFIP); conditions: for inhibition at 100 µM: read-out: Aβ40 Aggregation Inhibition % at 100 μM
T1 sequence (P05067 672-711 limits assumed): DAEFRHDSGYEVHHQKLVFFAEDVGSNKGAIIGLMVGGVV
Description: All the newly prepared compounds were tested in a routine in vitro assay of inhibition of Aβ40 self-aggregation [25].
All assays were performed in 96-well plates (Greiner Bio-One, Kremsmünster, Austria) using an Infinite M1000 Pro plate reader (Tecan, Cernusco s.N., Italy). Inhibition data were obtained as mean ± SD (for single concentration points) or mean ± SEM from three independent experiments (for IC50s), using Prism (GraphPad Prism version 5.00 for Windows, GraphPad Software, San Diego, CA, USA).
Assay of aggregation of Aβ40 (EzBiolab, Carmel, IN, USA) was performed as described [25], using 2% of 1,1,1,3,3,3-hexafluoro-2-propanol as aggregation enhancer and spectrofluorimetric detection of thioflavin T fluorescence as the probe of amyloid aggregation.

Aβ40 [2] = biological target: T1, Aβ40; conditions: supplement, cited from earlier work; for % inhib. @ 100 µM / IC50: training set

Row | SMILES | % inhib. @ 100 µM (Aβ40 [2]; 100 µM) | IC50 (Aβ40 [2]) | further results
1 | N/N=C1\C(=O)Nc2ccccc21 [Compound 2] |  |  | inhibition at 100 µM (Aβ40 [1]): 17 ± 2%
2 | COc1ccc2c(c1)C(=O)C(=O)N2Cc1ccccc1 [Compound 10] |  |  | inhibition at 100 µM (Aβ40 [1]): 52 ± 1%
3 | COc1ccc2c(c1)C(=O)C(=O)N2CCCc1ccccc1 [Compound 12] |  |  | IC50 (Aβ40 [1]): 19 ± 4 µM
4 | COc1ccc2c(c1)C(=O)C(=O)N2C1CC1 [Compound 14] |  |  | inhibition at 100 µM (Aβ40 [1]): 38 ± 5%
5 | CC(C)c1ccc(NN=C2C(=O)N(C3CC3)c3ccc(O)cc32)cc1 [Compound 20, 1-Cyclopropyl-5-hydroxy-3-(2-(4-isopropylphenyl)hydrazono)indolin-2-one] |  |  | inhibition at 100 µM (Aβ40 [1]): 26 ± 3%
6 | O=C1Nc2ccccc2C1=NNc1ccc2ccccc2c1 [Compound 24, 3-(2-(Naphthalen-2-yl)hydrazono)indolin-2-one] |  |  | IC50 (Aβ40 [1]): 10 ± 2 µM
7 | O=C1Nc2ccccc2C1=NNc1cccc2cccnc12 [Compound 25, 3-(2-(Quinolin-8-yl)hydrazineylidene)indolin-2-one] |  |  | inhibition at 100 µM (Aβ40 [1]): 63 ± 5%
8 | CC(C)c1ccc(NN=Cc2c[nH]c3ccccc23)cc1 [Compound 28, 3-((2-(4-Isopropylphenyl)hydrazono)methyl)-1H-indole] |  |  | IC50 (Aβ40 [1]): 18 ± 2 µM
9 | COc1ccc2[nH]cc(C=NNc3ccc(C#N)cc3)c2c1 [Compound 29, 4-(2-((5-Methoxy-1H-indol-3-yl)methylene)hydrazineyl)benzonitrile] |  |  | inhibition at 100 µM (Aβ40 [1]): 56 ± 1%
10 | Clc1cccc(N/N=C/c2c[nH]c3ccccc23)c1 [Compound 30] |  |  | IC50 (Aβ40 [1]): 13 ± 2 µM
11 | COc1ccc2[nH]cc(C=NNc3cccc(Cl)c3)c2c1 [Compound 31, 3-((2-(3-Chlorophenyl)hydrazineylidene)methyl)-5-methoxy-1H-indole] |  |  | IC50 (Aβ40 [1]): 9.2 ± 0.7 µM
12 | COc1ccc2[nH]cc(/C=N/Nc3ccc(Cl)cc3)c2c1 [Compound 33] |  |  | IC50 (Aβ40 [1]): 22 ± 2 µM
13 | O=C1C(=CNNc2ccccc2)C(=O)c2ccccc21 [Compound S1] | 49±2.0% |  | 
14 | Cc1ccc(NNC=C2C(=O)c3ccccc3C2=O)cc1 [Compound S2] | 44±4.0% |  | 
15 | CC(C)c1ccc(NNC=C2C(=O)c3ccccc3C2=O)cc1 [Compound S3] |  | 18 µM | 
16 | O=C1C(=CNNc2ccccc2Cl)C(=O)c2ccccc21 [Compound S4] |  | 32 µM | 
17 | O=C1C(=CNNc2cccc(Cl)c2)C(=O)c2ccccc21 [Compound S5] |  | 18 µM | 
18 | O=C1C(=CNNc2ccc(Cl)cc2)C(=O)c2ccccc21 [Compound S6] |  | 23 µM | 
19 | O=c1c(=NNc2ccc(Cl)cc2)c(=O)c2ccccc12 [Compound S7] | 38±5.3% |  | 
20 | Cc1ccc(N/N=C/C2=Nc3ccccc3C2=O)cc1 [Compound S9] |  | 3.6 µM | 
21 | CC(C)c1ccc(N/N=C/C2=Nc3ccccc3C2=O)cc1 [Compound S10] |  | 1.4 µM | 
22 | O=C1C(/C=N/Nc2ccccc2Cl)=Nc2ccccc21 [Compound S11] |  | 13 µM | 
23 | O=C1C(/C=N/Nc2cccc(Cl)c2)=Nc2ccccc21 [Compound S12] |  | 2.5 µM | 
24 | O=C1C(/C=N/Nc2ccc(Cl)cc2)=Nc2ccccc21 [Compound S13] | 33±1.0% |  | 
25 | O=C1C(/C=N/Nc2ccccc2)=Nc2ccc(Br)cc21 [Compound S14] |  | 35 µM | 
26 | Cc1ccc(N/N=C/C2=Nc3ccc(Br)cc3C2=O)cc1 [Compound S15] |  | 51 µM | 

Row | SMILES | % inhib. @ 100 µM (Aβ40 [2]; 100 µM) | IC50 (Aβ40 [2]) | further results
27 | CC(C)c1ccc(N/N=C/C2=Nc3ccc(Br)cc3C2=O)cc1 [Compound S16] |  | 23 µM | 
28 | O=C1C(/C=N/Nc2ccccc2Cl)=Nc2ccc(Br)cc21 [Compound S17] |  | 7.8 µM | 
29 | O=C1C(/C=N/Nc2cccc(Cl)c2)=Nc2ccc(Br)cc21 [Compound S18] |  | 4.4 µM | 
30 | O=C1C(/C=N/Nc2ccc(Cl)cc2)=Nc2ccc(Br)cc21 [Compound S19] | 46±7.0% |  | 
31 | O=C1C(/C=N/Nc2ccc(Cl)c(Cl)c2)=Nc2ccc(Br)cc21 [Compound S20] | 23±2.3% |  | 
32 | COc1ccc(N/N=C2\C(=O)Nc3ccccc32)cc1 [Compound S21] |  | 13 µM | 
33 | COc1cc2c(cc1OC)/C(=N/Nc1ccccc1)C(=O)N2 [Compound S25] |  | 63 µM | 
34 | COc1ccc2c(c1)/C(=N/Nc1cccc(Cl)c1)C(=O)N2 [Compound S26] | 72±1% |  | 
35 | COc1ccc2c(c1)/C(=N/Nc1ccc(Cl)cc1)C(=O)N2 [Compound S27] | 43±2% |  | 
36 | COc1ccc2c(c1)/C(=N/Nc1ccc(C)cc1)C(=O)N2 [Compound S28] | 29±4% |  | 
37 | COc1ccc2c(c1)/C(=N/Nc1ccc(C(C)(C)C)cc1)C(=O)N2 [Compound S30] | 66±4% | 15 µM | 
38 | O=C1Nc2ccccc2/C1=N/Nc1ccccc1 [Compound S31] |  |  | % inhib. @ 100 µM (II) (Aβ40 [2]; 100 µM, value marked (II)): 61±0.7%
39 | COc1ccc2c(c1)/C(=N/Nc1cccc(C(C)(C)C)c1)C(=O)N2 [Compound S32] | 56±2% |  | 
40 | COc1ccc(N/N=C2\C(=O)Nc3ccc(OC)cc32)cc1 [Compound S33] |  | 3.7 µM | 
41 | COc1ccc2c(c1)NC(=O)/C2=N\Nc1ccc(C(C)C)cc1 [Compound S36] |  | 7.1 µM | 
42 | COc1cc2c(cc1OC)/C(=N/Nc1ccccc1Cl)C(=O)N2 [Compound S37] | 70±3% |  | 
43 | COc1cc2c(cc1OC)/C(=N/Nc1cccc(Cl)c1)C(=O)N2 [Compound S38] |  | 17 µM | 
44 | COc1cc2c(cc1OC)/C(=N/Nc1ccc(Cl)cc1)C(=O)N2 [Compound S39] |  | 33 µM | 
45 | COc1cc2c(cc1OC)/C(=N/Nc1ccc(C(C)C)cc1)C(=O)N2 [Compound S40] |  | 4.4 µM | 
46 | COc1ccc(N/N=C2\C(=O)Nc3cc(OC)c(OC)cc32)cc1 [Compound S41] |  | 22 µM | 
47 | O=C1Nc2ccccc2/C1=N/Nc1cccc(F)c1 [Compound S42] | 52±0.9% |  | 
48 | O=C1Nc2cc(Cl)c(F)cc2/C1=N/Nc1ccc(Cl)cc1 [Compound S43] | 28±3.7% |  | 
49 | O=C1Nc2ccc(Br)cc2/C1=N/Nc1ccc(Cl)cc1 [Compound S44] | 63±4% |  | 
50 | O=C1Nc2ccc([N+](=O)[O-])cc2/C1=N/Nc1ccc(Cl)cc1 [Compound S45] | 12±2% |  | 
51 | O=C1Nc2ccccc2/C1=N/Nc1ccc(O)cc1 [Compound S46] |  | 9.3 µM | 
52 | O=C1Nc2ccc(O)cc2/C1=N/Nc1ccccc1 [Compound S47] | 62±3% |  | 

Row | SMILES | % inhib. @ 100 µM (Aβ40 [2]; 100 µM) | IC50 (Aβ40 [2]) | further results
53 | O=C1Nc2ccc(O)cc2/C1=N/Nc1cccc(Cl)c1 [Compound S48] |  | 18 µM | 
54 | CC(C)c1ccc(N/N=C2\C(=O)Nc3ccc(O)cc32)cc1 [Compound S49] |  | 21 µM | 
55 | O=C1Nc2ccc(O)cc2/C1=N/Nc1ccc(O)cc1 [Compound S50] | 61±2% |  | 
56 | O=C1Nc2cc(O)ccc2/C1=N/Nc1ccccc1 [Compound S51] |  | 22 µM | 
57 | CC(C)c1ccc(N/N=C2\C(=O)Nc3cc(O)ccc32)cc1 [Compound S52] |  | 6 µM | 
58 | O=C1Nc2ccccc2/C1=N/Nc1ccccc1Cl [Compound S53] | 44±5% |  | 
59 | O=C1Nc2cc(O)c(O)cc2/C1=N/Nc1ccccc1 [Compound S54] |  | 4.3 µM | 
60 | O=C1Nc2cc(O)c(O)cc2/C1=N/Nc1ccccc1Cl [Compound S55] |  | 11 µM | 
61 | O=C1Nc2cc(O)c(O)cc2/C1=N/Nc1ccc(Cl)cc1 [Compound S57] |  | 17 µM | 
62 | CC(C)c1ccc(N/N=C2\C(=O)Nc3cc(O)c(O)cc32)cc1 [Compound S58] |  | 1.6 µM | 
63 | O=C1Nc2cc(O)c(O)cc2/C1=N/Nc1ccc(O)cc1 [Compound S59] |  | 24 µM | 
64 | O=C1Nc2ccccc2/C1=N/Nc1cccc(Cl)c1 [Compound S60] | 39±5% |  | 
65 | O=C1Nc2ccccc2/C1=N/Nc1ccc(Cl)cc1 [Compound S61] | 24±4.9% |  | 
66 | O=C1Nc2ccccc2/C1=N/Nc1ccc(OC(F)(F)F)cc1 [Compound S62] | 57±3% |  | 
67 | O=C1Nc2ccccc2/C1=N/Nc1cccc([N+](=O)[O-])c1 [Compound S63] | 29±1.2% |  | 
68 | CC(C)c1ccc(N/N=C2\C(=O)Nc3ccccc32)cc1 [Compound S64] | 64±4% |  | 
69 | COc1ccc2c(c1)/C(=N/Nc1nc(CCl)cs1)C(=O)N2 [Compound S67] |  | 13 µM | 
70 | COc1ccc2c(c1)/C(=N/Nc1nc(-c3cccc(O)c3)cs1)C(=O)N2 [Compound S70] |  | 16 µM | 
71 | COc1cccc(-c2csc(N/N=C3\C(=O)Nc4ccc(OC)cc43)n2)c1 [Compound S71] |  | 34 µM | 
72 | COc1ccc2c(c1)/C(=N/Nc1nc(-c3cccc(Br)c3)cs1)C(=O)N2 [Compound S72] |  | 40 µM | 
73 | COc1ccc2c(c1)/C(=N/N(C)c1ccc(C(C)C)cc1)C(=O)N2C [Compound S73] |  | 11 µM | 
74 | CC(C)c1ccc(N/N=C2\C(=O)Nc3c(Br)cccc32)cc1 [Compound S80] |  |  | % inhib. @ 100 µM (Aβ40 [2]; 100 µM, ± SD): 1±9.3%
75 | COc1ccc2c(c1)/C(=N/Nc1cccc3ccccc13)C(=O)N2 [Compound S87] |  | 28 µM | 
76 | COc1ccc2c(c1)/C(=N/N=C/c1ccc(C(C)C)cc1)C(=O)N2 [Compound S89] |  | 6.7 µM | 
77 | COc1ccc2c(c1)/C(=N/N=C/c1cccc(Cl)c1)C(=O)N2 [Compound S90] |  | 11 µM | 
78 | Oc1ccc2[nH]cc(/C=N/Nc3ccc(Cl)cc3)c2c1 [Compound S92] |  | 21 µM | 
